# Values quoted from earlier work, collected in paper PMC6888386, “Identification of Novel 1,3,5-Triphenylbenzene Derivative Compounds as Inhibitors of Hen Lysozyme Amyloid Fibril Formation” (International Journal of Molecular Sciences, 2019).
# System: HEWL
# Set-up: method as in PMID 27597412
# Conditions: HEWL amyloid fibril formation; read-out: IC50 value of a representative bis(indolyl)phenylmethane; cited from earlier work
substance,measurement,value
bis(indolyl)phenylmethane,IC50,12.3 ± 1 µM
